Values of other authors as cited in patent US10265268B2, “External composition for screen foamers” (POLA PHARMA INC., priority 2014, dated 2019).

Details: surfactants from NIKKOL / suitable examples

| Compound | HLB |
| --- | --- |
| CCCCCCCCCCCCCCCCCC(=O)OCC(O)CO (centres unmarked) [Glyceryl monostearate] | 4.0 |
| Polyoxyethylene (10) cetyl ether | 13.5 |
| Polyoxyethylene (20) behenyl ether | 16.5 |

Further lines, results first:

| HLB | Compound |
| --- | --- |
| 17.5 | Polyethylene glycol monostearate (40 E.O.) |
| 12.5 | Polyoxyethylene (20) polyoxypropylene (8) cetyl ether |
